According to patent publication US10897891B2, “Compositions and methods for prolonged cell storage” (Board of Regents, The University of Texas System, priority 2015, dated 2021):
Values joined by “and” are separate entries in the source; they are usually repeats but may differ in a detail not shown here. Equal values may be shown once.

Experiments:
[1] = test system: macrophage like cell line U937; assay: Platelet binding to the macrophage like cell line U937 (Experiment E); type: cell-based, human; conditions: 2% PEG-400, 5° C. overnight
Protocol: U937 is a cell line derived from a patient with Acute Myelo-Monocytic Leukemia. […] In this binding experiment 5 day old platelets from the blood bank are held in a standard storage media referred to as ACD on a flat-bed shaker under standard conditions of rotation. ‘ACD’ contains […], Sodium Citrate, and Dextrose. These platelets were split into two conditions, control and 2%/0 PEG-400, in a 12 well plate format with a final volume of 100 ul per well. All wells were incubated overnight at 5° C. All wells where then stained with fluorescein Diacetate (Sigma product F7378). This agent was protected from light and 1 mg was dissolved in 10 ml acetone and stored at −70° C. FDA was diluted […] in PBS immediately prior to use (Miyamoto el al., 2000.) All platelet wells received 2.5 ug final per well of fluorescein diacetate (FA) contained in 50 ul PBS. After 1 hr at room temp a further 100 ul of PBS was added and the 12 well plates were centrifuged at 3000 g for 20 min at RT. 150 ul excess fluid was carefully removed from all wells and discarded. Platelets were gently suspended. […] Wells were examined and photographed with an inverted fluorescence microscope. […]
Control conditions had standard 75 ul of ACD suspended platelets, plus 25 μl PBS in the control wells. […] Wells were examined with an inverted fluorescence microscope.

[2] = test system: stored human platelets in thrombocytopenic CD-1 outbred mice; assay: Platelet storage vs platelet function in a mouse model of thrombocytopenia (tail vein bleeding, blotter weight); type: in vivo; conditions: for Weight of blood after tail vein cut, single animals: 1% PEG-400 in PBS, platelets stored at room temp.
Protocol: Fresh human platelets were obtained from the blood bank. These were pooled, mixed and divided twice to give 4 (new) platelet bags with 65 ml (+/−5 ml) in each. Next sterile PBS/PEG mixtures were made by adding filter sterilized PEG-400 (30% in PBS) serially diluting 1:4. (14 ml PBS+6 ml of PEG400=30% PEG, serially 1:4 diluted with PBS to give 7.5% PEG400, and 1.9% PEG400). Then, 10 ml of PBS or PBS/PEG was added into each platelet bag as follows: 10 ml PBS is 0 control=A; 10 ml of 1.9 is 0.25% peg final in platelets (a low dose tolerated by whole animal see below)=B; 10 ml of 7.5% gives 1% PEG-400 final (the max PEG400 dose tolerated by whole animal see below), =C; 10 ml of 30% gives 4% about 4 times the max dose tolerated in rhesus monkeys. Units were held at room temp 70 cycles/min, 1 inch stroke). The platelet units were confirmed to be negative for bacterial growth using 3 ml the platelet suspensions in Bactec blood culture bottles at 72 hr.
CD-1 outbred mice were obtained from Harlan Laboratories. All animals were pretreated with a 0.5 ml IP dose of 185 ug/mouse of filter sterilized fresh acetylsalicylic acid (aspirin) in PBS buffer. Fresh aspirin was used. Salicylate is the active metabolite responsible for most anti-inflammatory and analgesic effects; however, acetylsalicylate is the active moiety for the antiplatelet-aggregation effect and is rapidly hydrolyzed in water. On the following day all mice were given 3 U (heparin equivalents)/animal Lovenox (Enoxaparin Sodium Injection). After a 2 hr period for Lovenox to take full effect, the animals were given 100 ul platelets by IV tail vein injection, the platelets were allowed to circulate […] and the tail vein cut 1 cm from the tip with a new scapula for each animal. Bleeding was measured by collecting drops of blood for exactly 5 min on pre-weighed blotter paper Whatmen-40. The blotters were then weighed and these weights were compared using unpaired t test statistics. Platelets having an excessive amount of RBC in the units were sedimented under gravity in a 50 ml tube for 30 min and only the top 5 ml was harvested into a second 50 ml tube used for injection.)
Briefly, the animal model experiments were performed as follows. Fresh human platelets were obtained from a blood bank, consisting of 3 ABO ‘O’ units and 2 ABO ‘A’ units. These were pooled, mixed and divided twice to give 4 (new) platelet bags with 75 ml (+/−5 ml) in each. Next sterile PBS/PEG mixtures were made by adding filter sterilized PEG-400 (30% in PBS) serially diluting 1:4. (14 ml PBS+6 ml of PEG=30% PEG, serial ¼ diluted with PBS to give 7.5% PEG, and 1.9% PEG400). 10 ml of PBS or PBS/PEG was then added to each platelet bag as follows. […] Units were held at room temp 140 cycles/min, 0.5 inch stroke). The platelet units were confirmed as negative for bacterial growth using 3 ml in Bactec blood culture bottles at 72 hr.
CD-1 outbred mice were obtained from Harlan Laboratories. All animals were pretreated with a 0.5 ml IP dose of 185 μg/mouse of filter sterilized fresh acetylsalicylic acid in PBS buffer. On the following day all mice were given 3 U (heparin equivalents)/animal Lovenox. (Note: Aspirin was fresh. Salicylate is the active metabolite responsible for most anti-inflammatory and analgesic effects; however, acetylsalicylate is the active moiety for the antiplatelet-aggregation effect and is rapidly hydrolyzed in water. After a 2 hr period for Lovenox effect the animals were given 100 ul platelets by IV tail vein injection, the platelets were allowed to circulate 30 min and the tail vein cut 1 cm from tip with a new scapula for each animal. Bleeding was measured by collecting drops of blood for exactly 5 min on pre-weighed blotter paper Whatmen-40. The blotters were then weighed and these weights were compared using unpaired t test statistics. […]

Polyethylene glycol [PEG-400]
adsorption of cold stored platelets to U937 cells [1]: substantially block adsorption of cold stored platelets to macrophage like cells | adsorption of cold stored platelets to U937 cells ([1]; listed as PEG): only a few attached strongly fluorescent platelets | Weight of blood after tail vein cut, mean (X) of combined data ([2]; 1% PEG-400, room temp. storage 11-13 days, N = 9): X = 0.043 grams | activity of stored platelets ([2]; 1% PEG-400, room temp. storage, day 11-13): active | clotting vs standard platelet storage condition ([2]; 1% PEG-400, room temp., combined day 11 and day 13 data): significantly more clotting | Weight of blood after tail vein cut, single animals ([2]; Mar. 11, 2014 group): .06 grams and .04 grams and .05 grams | Weight of blood after tail vein cut, single animals ([2]; Mar. 13, 2014 group): .05 grams and .03 grams and .02 grams | Weight of blood after tail vein cut, single animals ([2]; May 23, 2014 group): .04 grams (2×) and .06 grams
